# Patent publication US11807625B2, “Capsid inhibitors for the prevention of HIV” (Gilead Sciences, Inc., priority 2019, dated 2023)
# Like-named read-outs stand apart in the source and are kept apart here.
# Assay: PK of compound of Formula (Ia) after single subcutaneous dose of solution formulations in beagle dogs
# Type: in vivo
# Settings: male, beagle, dog, plasma, sc, 12 mg/kg, mean ± SD
# Procedure: Formulations containing the compound of Formula (Ia), or a pharmaceutically acceptable salt thereof, were prepared as solutions and optionally administered subcutaneously or intramuscularly to rats, rabbits, and/or dogs.
# (§1) A solution of about 400 mg/mL of the compound of Formula (Ia) having 17.00 w/w % water, 36.40 w/w % PEG 300, 35.20 w/w % of a sodium salt of a compound of Formula (Ia), 5.00 w/w % ethanol, and 6.40 w/w % poloxamer 188 was prepared. The solution was administered subcutaneously to male beagle dogs at a dose level of about 12 mg/kg and male Wistar Han rats at a dose level of about 50 mg/kg. The pharmacokinetic profiles were determined, and the results for dogs are summarized in Table and Table, while the results for rats are summarized in Table and Table below.
# as §1, with “500” for “400”, “14.06” for “17.00”, “30.12” for “36.40”
# A solution of about 300 mg/mL of the compound of Formula (Ia) having 23.33 w/w % water, 48.99 w/w % PEG 300, 26.47 w/w % of a sodium salt of a compound of Formula (Ia), and 1.21 w/w % poloxamer 188 was prepared. The solution was administered subcutaneously to male beagle dogs at a dose level of about 6 mg/kg and male Wistar Han rats at a dose level of about 50 mg/kg. The pharmacokinetic profiles were determined, and the results for dogs are summarized in Table and Table, while the results for rats are summarized in Table and Table below.
# as §1, with “18.80” for “17.00”, “40.25” for “36.40”, “34.38” for “35.20”, “1.57” for “6.40”
# as §1, with “500” for “400”, “16.29” for “17.00”, “34.88” for “36.40”, “41.92” for “35.20”, “1.91” for “6.40”
# as §1, with “20.90” for “17.00”, “44.72” for “36.40”, “and 34.38” for “35.20”, “(Ia)” for “(Ia), 5.00 w/w % ethanol, and 6.40 w/w % poloxamer 188”
# A solution of about 400 mg/mL of the compound of Formula (Ia) having 19.90 w/w % water, 42.59 w/w % PEG 300, 34.38 w/w % of a sodium salt of a compound of Formula (Ia), and 3.13 w/w % poloxamer 188 was prepared. The solution was administered subcutaneously to male beagle dogs at a dose level of about 12 mg/kg and male Wistar Han rats at a dose level of about 50 mg/kg. […]
# [1] = n = 3 dogs, SC 12 mg/kg, solution T, 400 mg/mL
# [2] = n = 3 dogs, SC 12 mg/kg, solution U, 500 mg/mL
smiles,measurement,setting,value
CC(C)(C#Cc1ccc(-c2ccc(Cl)c3c(NS(C)(=O)=O)nn(CC(F)(F)F)c23)c([C@H](Cc2cc(F)cc(F)c2)NC(=O)Cn2nc(C(F)(F)F)c3c2C(F)(F)[C@@H]2C[C@H]32)n1)S(C)(=O)=O [compound of Formula (Ia)],AUC(0-t),"male beagle dogs, single SC 12 mg/kg, 400 mg/mL solution Z (3.13% poloxamer 188), n = 3, read-out: AUC0-3024 h",175 ± 32 µM·h
same,AUC(0-t),"male beagle dogs, single SC 12 mg/kg, 400 mg/mL solution Z (3.13% poloxamer 188), n = 3, read-out: AUC0-3696 h",177 ± 31 µM·h
same,Cmax,"male beagle dogs, single SC 12 mg/kg, 500 mg/mL solution X (5.00% ethanol, 1.91% poloxamer 188), n = 3",125 ± 95 nM
same,AUC(0-t),"male beagle dogs, single SC 12 mg/kg, 500 mg/mL solution X (5.00% ethanol, 1.91% poloxamer 188), n = 3, read-out: AUC0-24 h",0.663 ± 0.157 µM·h
same,AUC(0-t),"male beagle dogs, single SC 12 mg/kg, 500 mg/mL solution X (5.00% ethanol, 1.91% poloxamer 188), n = 3, read-out: AUC0-168 h",6.01 ± 1.87 µM·h
same,AUC(0-t),"male beagle dogs, single SC 12 mg/kg, 500 mg/mL solution X (5.00% ethanol, 1.91% poloxamer 188), n = 3, read-out: AUC0-672 h",46.1 ± 32.5 µM·h
same,AUC(0-t),"male beagle dogs, single SC 12 mg/kg, 500 mg/mL solution X (5.00% ethanol, 1.91% poloxamer 188), n = 3, read-out: AUC0-1344 h",90.8 ± 60 µM·h
same,AUC(0-t),"male beagle dogs, single SC 12 mg/kg, 500 mg/mL solution X (5.00% ethanol, 1.91% poloxamer 188), n = 3, read-out: AUC0-1680 h",106 ± 68 µM·h
same,AUC(0-t),"male beagle dogs, single SC 12 mg/kg, 500 mg/mL solution X (5.00% ethanol, 1.91% poloxamer 188), n = 3, read-out: AUC0-2016 h",116 ± 75 µM·h
same,AUC(0-t),"male beagle dogs, single SC 12 mg/kg, 500 mg/mL solution X (5.00% ethanol, 1.91% poloxamer 188), n = 3, read-out: AUC0-2253 h",124 ± 44 µM·h
same,AUC(0-t),"male beagle dogs, single SC 12 mg/kg, 500 mg/mL solution X (5.00% ethanol, 1.91% poloxamer 188), n = 3, read-out: AUC0-2688 h",130 ± 83 µM·h
same,AUC(0-t),"male beagle dogs, single SC 12 mg/kg, 500 mg/mL solution X (5.00% ethanol, 1.91% poloxamer 188), n = 3, read-out: AUC0-3024 h",135 ± 86 µM·h
same,AUC(0-t),"male beagle dogs, single SC 12 mg/kg, 500 mg/mL solution X (5.00% ethanol, 1.91% poloxamer 188), n = 3, read-out: AUC0-4032 h",145 ± 90 µM·h
same,AUC(0-t),"male beagle dogs, single SC 12 mg/kg, 500 mg/mL solution X (5.00% ethanol, 1.91% poloxamer 188), n = 3, read-out: AUC0-4368 h",148 ± 91 µM·h
same,AUC(0-inf),[1],219 ± 54 µM·h
same,Cmax,[1],353 ± 148 nM
same,Tmax,[1],13 ± 8.54 days
same,half-life,[1],14.7 days
same,AUC(0-t),"n = 3 dogs, SC 12 mg/kg, solution T, 400 mg/mL, read-out: AUC0-24 h",2.64 ± 0.5 µM·h
same,AUC(0-t),"n = 3 dogs, SC 12 mg/kg, solution T, 400 mg/mL, read-out: AUC0-168 h",36 ± 26.2 µM·h
same,AUC(0-t),"n = 3 dogs, SC 12 mg/kg, solution T, 400 mg/mL, read-out: AUC0-336 h",76.1 ± 46.7 µM·h
same,AUC(0-t),"n = 3 dogs, SC 12 mg/kg, solution T, 400 mg/mL, read-out: AUC0-672 h",148 ± 51 µM·h
same,AUC(0-t),"n = 3 dogs, SC 12 mg/kg, solution T, 400 mg/mL, read-out: AUC0-1334 h",197 ± 48 µM·h
same,AUC(0-t),"n = 3 dogs, SC 12 mg/kg, solution T, 400 mg/mL, read-out: AUC0-2016 h",213 ± 53 µM·h
same,AUC(0-t),"n = 3 dogs, SC 12 mg/kg, solution T, 400 mg/mL, read-out: AUC0-2352 h",216 ± 54 µM·h
same,AUC(0-inf),[2],141 ± 14 µM·h
same,Cmax,[2],175 ± 29 nM
same,Tmax,[2],14.3 ± 11.5 days
same,half-life,[2],18.3 days
same,AUC(0-t),"n = 3 dogs, SC 12 mg/kg, solution U, 500 mg/mL, read-out: AUC0-24 h",1.8 ± 0.85 µM·h
same,AUC(0-t),"n = 3 dogs, SC 12 mg/kg, solution U, 500 mg/mL, read-out: AUC0-168 h",12.9 ± 5.1 µM·h
same,AUC(0-t),"n = 3 dogs, SC 12 mg/kg, solution U, 500 mg/mL, read-out: AUC0-336 h",33.9 ± 14.2 µM·h
same,AUC(0-t),"n = 3 dogs, SC 12 mg/kg, solution U, 500 mg/mL, read-out: AUC0-672 h",78.5 ± 11.4 µM·h
same,AUC(0-t),"n = 3 dogs, SC 12 mg/kg, solution U, 500 mg/mL, read-out: AUC0-1334 h",118 ± 6 µM·h
same,AUC(0-t),"n = 3 dogs, SC 12 mg/kg, solution U, 500 mg/mL, read-out: AUC0-2016 h",133 ± 11 µM·h
same,AUC(0-t),"n = 3 dogs, SC 12 mg/kg, solution U, 500 mg/mL, read-out: AUC0-2352 h",136 ± 12 µM·h
same,Cmax,"n = 3 dogs, SC 12 mg/kg, solution W, 400 mg/mL",200 ± 90 nM
same,AUC(0-t),"n = 3 dogs, SC 12 mg/kg, solution W, 400 mg/mL, read-out: AUC0-24 h",0.505 ± 0.194 µM·h
same,AUC(0-t),"n = 3 dogs, SC 12 mg/kg, solution W, 400 mg/mL, read-out: AUC0-168 h",6.82 ± 3.38 µM·h
same,AUC(0-t),"n = 3 dogs, SC 12 mg/kg, solution W, 400 mg/mL, read-out: AUC0-672 h",65.1 ± 43.1 µM·h
same,AUC(0-t),"n = 3 dogs, SC 12 mg/kg, solution W, 400 mg/mL, read-out: AUC0-1344 h",123 ± 54 µM·h
same,AUC(0-t),"n = 3 dogs, SC 12 mg/kg, solution W, 400 mg/mL, read-out: AUC0-1680 h",142 ± 50 µM·h
same,AUC(0-t),"n = 3 dogs, SC 12 mg/kg, solution W, 400 mg/mL, read-out: AUC0-2016 h",154 ± 47 µM·h
same,AUC(0-t),"n = 3 dogs, SC 12 mg/kg, solution W, 400 mg/mL, read-out: AUC0-2253 h",164 ± 44 µM·h
same,AUC(0-t),"n = 3 dogs, SC 12 mg/kg, solution W, 400 mg/mL, read-out: AUC0-2688 h",170 ± 42 µM·h
same,AUC(0-t),"n = 3 dogs, SC 12 mg/kg, solution W, 400 mg/mL, read-out: AUC0-3024 h",174 ± 41 µM·h
same,AUC(0-t),"n = 3 dogs, SC 12 mg/kg, solution W, 400 mg/mL, read-out: AUC0-4032 h",181 ± 39 µM·h
same,AUC(0-t),"n = 3 dogs, SC 12 mg/kg, solution W, 400 mg/mL, read-out: AUC0-4368 h",182 ± 38 µM·h
